Test results from publication PMC3229200 (Bioorganic & medicinal chemistry, 2011).

Tests used:
σ2 receptor [1] = molecular target: σ2 receptor (Homo sapiens, UniProt Q5BJF2); assay type: binding; settings: 10 μM competing compound, 1 nM [125I]-IAF, RT4 cell membranes
σ1 receptor = σ1 receptor (Homo sapiens, UniProt Q99720); assay type: binding; settings: 10 μM competing compound, 1 nM [125I]-IAF, RT4 cell membranes
σ2 receptor [2] = molecular target: T1, σ2 receptor (Rattus norvegicus, UniProt Q5U3Y7); assay: Competitive σ2 receptor radioligand binding
T1 sequence (Q5U3Y7 1-176): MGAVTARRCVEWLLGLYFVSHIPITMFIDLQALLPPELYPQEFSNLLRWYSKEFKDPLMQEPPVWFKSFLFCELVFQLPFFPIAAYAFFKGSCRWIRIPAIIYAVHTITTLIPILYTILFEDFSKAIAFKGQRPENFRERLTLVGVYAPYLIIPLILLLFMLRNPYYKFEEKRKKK

σ1 receptor, sequence (Q99720 whole entry): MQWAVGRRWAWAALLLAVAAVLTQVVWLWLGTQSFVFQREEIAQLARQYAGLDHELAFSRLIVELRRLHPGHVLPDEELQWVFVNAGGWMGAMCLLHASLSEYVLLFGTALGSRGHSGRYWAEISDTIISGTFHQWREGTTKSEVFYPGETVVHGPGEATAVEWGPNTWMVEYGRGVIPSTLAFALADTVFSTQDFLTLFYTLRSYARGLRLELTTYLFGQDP
σ2 receptor (Homo sapiens, UniProt Q5BJF2), sequence (Q5BJF2 whole entry): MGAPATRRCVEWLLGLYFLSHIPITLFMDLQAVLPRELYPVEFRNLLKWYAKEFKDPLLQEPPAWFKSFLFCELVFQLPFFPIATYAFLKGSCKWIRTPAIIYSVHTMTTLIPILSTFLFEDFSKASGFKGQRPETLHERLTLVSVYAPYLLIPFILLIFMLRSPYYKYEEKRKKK

Row | Structure (SMILES) | Blocking of σ1 receptor photolabeling by [125I]-IAF (σ1 receptor) | Selectivity for the σ2 over the σ1 receptor (σ2 receptor [2]) | Improvement of σ2 selectivity relative to the σ1 receptor, versus 5f (σ2 receptor [2]; 5e compared to 5f) [fold] | Increase of σ2 affinity versus 5f (σ2 receptor [2]; 5e compared to 5f) [fold] | Increase of σ2 affinity in comparison to compound 5h (σ2 receptor [2]; 5g compared to 5h) [fold] | Blocking of σ2 receptor photolabeling by [125I]-IAF (σ2 receptor [1])
1 | COc1cccc(C(=O)NCCCCN2CCc3ccc([N+](=O)[O-])cc3C2)c1OC [Compound 5f, 2,3-Dimethoxy-N-(4-(7-nitro-3,4-dihydroisoquinoline-2(1H)-yl)butyl)benzamide] | did not block the labeling of either receptor | – | – | – | – | did not block the labeling of either receptor
2 | COc1c(I)ccc(C(=O)NCCCCN2CCc3ccc([N+](=O)[O-])cc3C2)c1O [Compound 5g, 2-Hydroxy-4-iodo-3-methoxy-N-(4-(7-nitro-3,4-dihydroisoquinoline-2(1H)-yl)butyl)benzamide] | – | – | – | – | 4.5 | –
3 | O=C(CCCN1CCC(O)(c2ccc(Cl)cc2)CC1)c1ccc(F)cc1 [haloperidol, reference compound] | – | – | – | – | – | blocked photolabeling

Further lines, with some results ahead:

Row | Blocking of σ1 receptor photolabeling by [125I]-IAF (σ1 receptor) | Selectivity for the σ2 over the σ1 receptor (σ2 receptor [2]) | Improvement of σ2 selectivity relative to the σ1 receptor, versus 5f (σ2 receptor [2]; 5e compared to 5f) [fold] | Increase of σ2 affinity versus 5f (σ2 receptor [2]; 5e compared to 5f) [fold] | Increase of σ2 affinity in comparison to compound 5h (σ2 receptor [2]; 5g compared to 5h) [fold] | Structure (SMILES) | Blocking of σ2 receptor photolabeling by [125I]-IAF (σ2 receptor [1])
4 | diminished both bands | – | – | – | – | O=C1c2ccccc2C(=O)N1CCCCN1CCc2ccc([N+](=O)[O-])cc2C1 [Compound 3b, 2-(4-(7-Nitro-3,4-dihydroisoquinoline-2(1H)-yl)butyl)isoindoline-1,3-dione] | diminished both bands
5 | left σ1 labeling essentially unaltered | ~ 400 fold | 631 | 500 | – | COc1ccc(C(=O)NCCCCN2CCc3ccc([N+](=O)[O-])cc3C2)c(OC)c1OC [Compound 5e, 2,3,4-Trimethoxy-N-(4-(7-nitro-3,4-dihydroisoquinoline-2(1H)-yl)butyl)benzamide] | eliminated σ2 labeling
